Data published in ChEMBL document CHEMBL3244409, “(2,6-Methano-3-benzazocin-11 beta-yl)alkanones. 1. Alkylalkanones: a new series of N-methyl derivatives with novel opiate activity profiles” (1979).

Columns and labels:
Type in all cases: functional
[1] = tested on: Rattus norvegicus; test: Analgesic activity in sc dosed rat assessed as inhibition of phenazocine-induced effect
[2] = tested on: Mus musculus; test: Analgesic activity in sc dosed mouse by acetylcholine writhing test
[3] = tested on: Rattus norvegicus; test: Analgesic activity in sc dosed rat by tail flick test
[4] = tested on: Rattus norvegicus; test: Analgesic activity in sc dosed rat by intracarotid bradykinin test
[5] = tested on: Rattus norvegicus; test: Analgesic activity in rat at 120 mg/kg, sc by tail flick test; details: route subcutaneous
[6] = tested on: Rattus norvegicus; test: Analgesic activity in sc dosed rat assessed as inhibition of morphine-induced effect
[7] = tested on: Rattus norvegicus; test: Analgesic activity in sc dosed rat assessed as inhibition of meperidine-induced effect
[8] = tested on: Rattus norvegicus; test: Analgesic activity in rat at 240 mg/kg, sc by tail flick test; details: route subcutaneous
[9] = tested on: Mus musculus; test: Analgesic activity in mouse at 25 mg/kg, sc by acetylcholine writhing test; details: route subcutaneous
[10] = Mus musculus, sc, read-out: ED50
[11] = Rattus norvegicus, Tail, sc, read-out: ED50
[12] = Rattus norvegicus, sc, read-out: ED50

Row | SMILES | AD50 [1] [mg/kg] | ED50 [2, 10] [mg/kg] | ED50 [3, 11] [mg/kg] | ED50 [4, 12] [mg/kg] | further results
1 | CC(C)CCCC(=O)CC[C@]1(C)C2Cc3ccc(O)cc3[C@@]1(C)CCN2C (mixture of isomers) | 0.029 | 5.3 | 120 |  | 
2 | CCCCC(=O)CC[C@]1(C)C2Cc3ccc(O)cc3[C@@]1(C)CCN2C.Cl (mixture of isomers) | 0.1 | 0.017 | 0.039 | 0.012 | 
3 | COc1ccc2c(c1)[C@@]1(C)CCN(C)C(C2)[C@@]1(C)CCC(C)=O.Cl (mixture of isomers) |  | 3.5 |  |  | Activity [5]: 66%
4 | CCCC(=O)CC[C@]1(C)C2Cc3ccc(O)cc3[C@@]1(C)CCN2C.Cl (mixture of isomers) | 80 | 0.023 | 0.099 | 0.019 | 
5 | C=CCN1CC[C@]23c4c5ccc(O)c4O[C@H]2C(=O)CC[C@@]3(O)[C@H]1C5 [NALOXONE] | 0.008 | 60 |  |  | AD50 [6]: 0.004 mg/kg; AD50 [7]: 0.004 mg/kg
6 | CC(C)CCC(=O)CC[C@]1(C)C2Cc3ccc(O)cc3[C@@]1(C)CCN2C.Cl (stereo in doubt; (-)-3i) | 0.088 |  |  |  | ED50 [2]: 0.016 mg/kg; Activity [5]: 46%
7 | COc1ccc2c(c1)[C@@]1(C)CCN(C)C(C2)[C@@]1(C)CCC(=O)C(C)C.CS(=O)(=O)O (mixture of isomers) | 80 | 5 |  |  | Activity [5]: 42%
8 | CCCCCC(=O)CC[C@]1(C)C2Cc3ccc(O)cc3[C@@]1(C)CCN2C.Cl (mixture of isomers) | 0.008 | 0.24 | 120 | 0.043 | AD50 [6]: 0.098 mg/kg; AD50 [7]: 0.19 mg/kg
9 | CCCCCC(=O)CC[C@]1(C)C2Cc3ccc(OC)cc3[C@@]1(C)CCN2C.Cl (mixture of isomers) | 10 | 1.5 | 30 |  | 
10 | CCCCCCC(=O)CC[C@]1(C)C2Cc3ccc(O)cc3[C@@]1(C)CCN2C.Cl (mixture of isomers) | 0.04 | 12 | 120 | 2.2 | 
11 | CC(C)CC(=O)CC[C@]1(C)C2Cc3ccc(O)cc3[C@@]1(C)CCN2C.Cl (mixture of isomers) | 0.01 | 0.019 | 0.067 | 0.019 | 
12 | CCCC(=O)CC[C@]1(C)C2Cc3ccc(OC)cc3[C@@]1(C)CCN2C.CS(=O)(=O)O (mixture of isomers) | 80 | 0.89 | 2 |  | 
13 | C[C@H]1[C@H]2Cc3ccc(O)cc3[C@]1(C)CCN2CC1CC1 [CYCLAZOCINE] | 0.028 |  |  |  | AD50 [6]: 0.029 mg/kg; AD50 [7]: 0.024 mg/kg
14 | CCCCCC(=O)CC[C@]1(C)C2Cc3ccc(O)cc3[C@@]1(C)CCN2C.CS(=O)(=O)O (stereo in doubt; (+)-3e) | 80 |  | 95 |  | ED50 [2]: 11 mg/kg; ED50 [4]: 50 mg/kg
15 | COc1ccc2c(c1)[C@@]1(C)CCN(C)C(C2)[C@@]1(C)CCC(=O)CC(C)C.CS(=O)(=O)O (mixture of isomers) | 80 | 1 | 4.3 |  | 
16 | CCCCC(=O)CC[C@]1(C)C2Cc3ccc(OC)cc3[C@@]1(C)CCN2C.Cl (mixture of isomers) | 1 | 0.63 | 1.35 |  | 
17 | COc1ccc2c(c1)[C@@]1(C)CCN(C)C(C2)[C@@]1(C)CCC(=O)CCC(C)C.Cl (mixture of isomers) | 80 | 2 | 16 | 2.4 | 
18 | CC(C)CCC(=O)CC[C@]1(C)C2Cc3ccc(O)cc3[C@@]1(C)CCN2C.Cl (mixture of isomers) | 0.3 |  |  | 0.032 | Activity [8]: 47%; AD50 [6]: 0.58 mg/kg; ED50 [2]: 0.074 mg/kg; AD50 [7]: 0.73 mg/kg
19 | CC(C)C(=O)CC[C@]1(C)C2Cc3ccc(O)cc3[C@@]1(C)CCN2C.Cl (mixture of isomers) | 80 | 0.11 | 24 | 0.12 | 
20 | CO[C@@]12CC[C@@]3(C[C@@H]1[C@](C)(O)C(C)(C)C)[C@H]1Cc4ccc(O)c5c4[C@@]3(CCN1CC1CC1)[C@H]2O5 [BUPRENORPHINE] | 0.11 | 0.059 |  | 0.004 | Activity [5]: 14%
21 | CCC(=O)CC[C@]1(C)C2Cc3ccc(O)cc3[C@@]1(C)CCN2C.Cl (mixture of isomers) | 1 | 0.18 | 0.99 |  | 
22 | CCCCCC(=O)CC[C@]1(C)C2Cc3ccc(O)cc3[C@@]1(C)CCN2C.CS(=O)(=O)O (single isomer, unassigned; (-)) | 0.005 |  |  |  | ED50 [2]: 0.19 mg/kg; ED50 [4]: 0.022 mg/kg; ED50 [3]: 95 mg/kg
23 | CC(=O)CC[C@]1(C)C2Cc3ccc(O)cc3[C@@]1(C)CCN2C.CS(=O)(=O)O (mixture of isomers) |  |  | 2.5 | 0.19 | 
24 | COc1ccc2c(c1)[C@@]1(C)CCN(C)C(C2)[C@@]1(C)CCC(=O)CCCC(C)C.Cl (mixture of isomers) | 80 | 7.5 |  |  | Activity [5]: 70%
25 | CCC(=O)CC[C@]1(C)C2Cc3ccc(OC)cc3[C@@]1(C)CCN2C.CS(=O)(=O)O (mixture of isomers) | 1 | 1.9 | 5.9 |  | 
26 | CC(=O)CC[C@]1(C)C2Cc3ccc(O)cc3[C@@]1(C)CCN2C (mixture of isomers) | 40 | 0.25 |  |  | 
27 | CC(C)CCC(=O)CC[C@]1(C)C2Cc3ccc(O)cc3[C@@]1(C)CCN2C.Cl (stereo in doubt; (+)-3i) | 20 |  | 120 |  | ED50 [2]: 10 mg/kg
28 | CCCCCCC(=O)CC[C@]1(C)C2Cc3ccc(OC)cc3[C@@]1(C)CCN2C.Cc1ccc(S(=O)(=O)O)cc1 (mixture of isomers) | 80 |  | 120 |  | Activity [9]: 20%
29 | CN1CC[C@]23c4c5ccc(O)c4O[C@H]2[C@@H](O)C=C[C@H]3[C@H]1C5 [MORPHINE] |  |  | 3.9 | 2.3 | 
